Source: patent US8952024B2, “Herbicidal pyrimidone derivatives” (E I du Pont de Nemours and Company, priority 2009, dated 2015)

Legend:
Assay in all cases: Test D pre-/postemergence plant response
Assay type in all cases: in vivo
Conditions in all cases: Postemergence
[1] = system: Surinam grass (Brachiaria decumbens)
How it was run: (§1)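 Seeds were sown in a loam–sand blend and sprayed preemergence with compound in a non-phytotoxic solvent mixture containing surfactant; plants at 2–18 cm (1- to 4-leaf stage) received the same formulation postemergence. After 14 to 21 days in a greenhouse, injury was rated visually against untreated controls (0 = no effect, 100 = complete control).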

[2] = system: groundsel (common groundsel, Senecio vulgaris)
How it was run: as §1

[3] = system: sowthistle (common sowthistle, Sonchus oleraceous)
How it was run: as §1

[4] = system: itchgrass (Rottboellia cochinchinensis)
How it was run: as §1

[5] = system: guineagrass (Panicum maximum)
How it was run: as §1

[6] = system: green foxtail (Setaria viridis)
How it was run: as §1

[7] = system: goosegrass (Eleusine indica)
How it was run: as §1

[8] = system: bermudagrass (Cynodon dactylon)
How it was run: as §1

kochia (Kochia scoparia) = system: kochia (Kochia scoparia)
How it was run: as §1

[9] = system: mallow (common mallow, Malva sylvestris)
How it was run: as §1

[10] = system: barnyardgrass (Echinochloa crus-galli)
How it was run: as §1

[11] = system: dallisgrass (Paspalum dilatatum)
How it was run: as §1

[12] = system: johnsongrass (Sorghum halepense)
How it was run: as §1

[13] = system: dayflower (Virginia (VA) dayflower, Commelina virginica)
How it was run: as §1

[14] = 125 g ai/ha, scale 0 to 100 (0 no effect, 100 complete control)
[15] = 250 g ai/ha, scale 0 to 100 (0 no effect, 100 complete control)
[16] = 62 g ai/ha, scale 0 to 100 (0 no effect, 100 complete control)

## CCCCn1c(-c2ccccc2)ncc(C(=O)C2=C(O)C3CCC(C3)C2=O)c1=O (stereo not shown) [Compound 240]
[1]; 31 g ai/ha, scale 0 to 100
  Plant response rating, Surinam Grass: 70
[1]; [14]
  Plant response rating, Surinam Grass: 95
[1]; [15]
  Plant response rating, Surinam Grass: 95
[1]; [16]
  Plant response rating, Surinam Grass: 70
[2]; 31 g ai/ha, scale 0 to 100
  Plant response rating, Groundsel: 100
[2]; [14]
  Plant response rating, Groundsel: 100
[2]; [15]
  Plant response rating, Groundsel: 100
[2]; [16]
  Plant response rating, Groundsel: 100
[3]; 31 g ai/ha, scale 0 to 100
  Plant response rating, Sowthistle: 98
[3]; [14]
  Plant response rating, Sowthistle: 98
[3]; [15]
  Plant response rating, Sowthistle: 98
[3]; [16]
  Plant response rating, Sowthistle: 98
[4]; 31 g ai/ha, scale 0 to 100
  Plant response rating, Itchgrass: 75
[4]; [14]
  Plant response rating, Itchgrass: 80
[4]; [15]
  Plant response rating, Itchgrass: 80
[4]; [16]
  Plant response rating, Itchgrass: 75
[5]; 31 g ai/ha, scale 0 to 100
  Plant response rating, Guineagrass: 40
[5]; [14]
  Plant response rating, Guineagrass: 80
[5]; [15]
  Plant response rating, Guineagrass: 80
[5]; [16]
  Plant response rating, Guineagrass: 65
[6]; 31 g ai/ha, scale 0 to 100
  Plant response rating, Foxtail, Green: 95
[6]; [14]
  Plant response rating, Foxtail, Green: 98
[6]; [15]
  Plant response rating, Foxtail, Green: 98
[6]; [16]
  Plant response rating, Foxtail, Green: 98
[7]; 31 g ai/ha, scale 0 to 100
  Plant response rating, Goosegrass: 70
[7]; [14]
  Plant response rating, Goosegrass: 80
[7]; [15]
  Plant response rating, Goosegrass: 80
[7]; [16]
  Plant response rating, Goosegrass: 70
[8]; 31 g ai/ha, scale 0 to 100
  Plant response rating, Bermudagrass: 85
[8]; [14]
  Plant response rating, Bermudagrass: 95
[8]; [15]
  Plant response rating, Bermudagrass: 95
[8]; [16]
  Plant response rating, Bermudagrass: 95
Kochia (Kochia scoparia); 31 g ai/ha, scale 0 to 100
  Plant response rating, Kochia: 20
Kochia (Kochia scoparia); [14]
  Plant response rating, Kochia: 65
Kochia (Kochia scoparia); [15]
  Plant response rating, Kochia: 70
Kochia (Kochia scoparia); [16]
  Plant response rating, Kochia: 65
[9]; 31 g ai/ha, scale 0 to 100
  Plant response rating, Mallow: 10
[9]; [14]
  Plant response rating, Mallow: 60
[9]; [15]
  Plant response rating, Mallow: 60
[9]; [16]
  Plant response rating, Mallow: 40
[10]; 31 g ai/ha, scale 0 to 100
  Plant response rating, Barnyardgrass: 80
[10]; [14]
  Plant response rating, Barnyardgrass: 95
[10]; [15]
  Plant response rating, Barnyardgrass: 95
[10]; [16]
  Plant response rating, Barnyardgrass: 95
[11]; 31 g ai/ha, scale 0 to 100
  Plant response rating, Dallisgrass: 5
[11]; [14]
  Plant response rating, Dallisgrass: 75
[11]; [15]
  Plant response rating, Dallisgrass: 75
[11]; [16]
  Plant response rating, Dallisgrass: 70
[12]; 31 g ai/ha, scale 0 to 100
  Plant response rating, Johnsongrass: 70
[12]; [14]
  Plant response rating, Johnsongrass: 95
[12]; [15]
  Plant response rating, Johnsongrass: 95
[12]; [16]
  Plant response rating, Johnsongrass: 90
[13]; 31 g ai/ha, scale 0 to 100
  Plant response rating, Dayflower, VA: 35
[13]; [14]
  Plant response rating, Dayflower, VA: 70
[13]; [15]
  Plant response rating, Dayflower, VA: 75
[13]; [16]
  Plant response rating, Dayflower, VA: 60

## COCCCn1c(-c2cc(F)cc(F)c2)ncc(C(=O)C2=C(O)C3CCC(C3)C2=O)c1=O (stereo not shown) [Compound 244]
[1]; 31 g ai/ha, scale 0 to 100
  Plant response rating, Surinam Grass: 75
[1]; [14]
  Plant response rating, Surinam Grass: 80
[1]; [15]
  Plant response rating, Surinam Grass: 80
[1]; [16]
  Plant response rating, Surinam Grass: 75
[2]; 31 g ai/ha, scale 0 to 100
  Plant response rating, Groundsel: 100
[2]; [14]
  Plant response rating, Groundsel: 100
[2]; [15]
  Plant response rating, Groundsel: 100
[2]; [16]
  Plant response rating, Groundsel: 100
[3]; 31 g ai/ha, scale 0 to 100
  Plant response rating, Sowthistle: 75
[3]; [14]
  Plant response rating, Sowthistle: 100
[3]; [15]
  Plant response rating, Sowthistle: 100
[3]; [16]
  Plant response rating, Sowthistle: 95
[4]; 31 g ai/ha, scale 0 to 100
  Plant response rating, Itchgrass: 60
[4]; [14]
  Plant response rating, Itchgrass: 75
[4]; [15]
  Plant response rating, Itchgrass: 75
[4]; [16]
  Plant response rating, Itchgrass: 70
[5]; 31 g ai/ha, scale 0 to 100
  Plant response rating, Guineagrass: 70
[5]; [14]
  Plant response rating, Guineagrass: 75
[5]; [15]
  Plant response rating, Guineagrass: 75
[5]; [16]
  Plant response rating, Guineagrass: 75
[6]; 31 g ai/ha, scale 0 to 100
  Plant response rating, Foxtail, Green: 75
[6]; [14]
  Plant response rating, Foxtail, Green: 95
[6]; [15]
  Plant response rating, Foxtail, Green: 100
[6]; [16]
  Plant response rating, Foxtail, Green: 90
[7]; 31 g ai/ha, scale 0 to 100
  Plant response rating, Goosegrass: 50
[7]; [14]
  Plant response rating, Goosegrass: 70
[7]; [15]
  Plant response rating, Goosegrass: 70
[7]; [16]
  Plant response rating, Goosegrass: 60
[8]; 31 g ai/ha, scale 0 to 100
  Plant response rating, Bermudagrass: 80
[8]; [14]
  Plant response rating, Bermudagrass: 95
[8]; [15]
  Plant response rating, Bermudagrass: 95
[8]; [16]
  Plant response rating, Bermudagrass: 80
Kochia (Kochia scoparia); 31 g ai/ha, scale 0 to 100
  Plant response rating, Kochia: 25
Kochia (Kochia scoparia); [14]
  Plant response rating, Kochia: 50
Kochia (Kochia scoparia); [15]
  Plant response rating, Kochia: 65
Kochia (Kochia scoparia); [16]
  Plant response rating, Kochia: 50
[9]; 31 g ai/ha, scale 0 to 100
  Plant response rating, Mallow: 50
[9]; [14]
  Plant response rating, Mallow: 60
[9]; [15]
  Plant response rating, Mallow: 70
[9]; [16]
  Plant response rating, Mallow: 50
[10]; 31 g ai/ha, scale 0 to 100
  Plant response rating, Barnyardgrass: 80
[10]; [14]
  Plant response rating, Barnyardgrass: 85
[10]; [15]
  Plant response rating, Barnyardgrass: 90
[10]; [16]
  Plant response rating, Barnyardgrass: 80
[11]; 31 g ai/ha, scale 0 to 100
  Plant response rating, Dallisgrass: 40
[11]; [14]
  Plant response rating, Dallisgrass: 75
[11]; [15]
  Plant response rating, Dallisgrass: 80
[11]; [16]
  Plant response rating, Dallisgrass: 75
[12]; 31 g ai/ha, scale 0 to 100
  Plant response rating, Johnsongrass: 70
[12]; [14]
  Plant response rating, Johnsongrass: 75
[12]; [15]
  Plant response rating, Johnsongrass: 75
[12]; [16]
  Plant response rating, Johnsongrass: 70
[13]; 31 g ai/ha, scale 0 to 100
  Plant response rating, Dayflower, VA: 30
[13]; [14]
  Plant response rating, Dayflower, VA: 65
[13]; [15]
  Plant response rating, Dayflower, VA: 70
[13]; [16]
  Plant response rating, Dayflower, VA: 50
